From US11964971B2, “Methods and compositions for modulating splicing” (Skyhawk Therapeutics, Inc., priority 2019, dated 2024)

Assays:
[1] = tested on: MDR1 (P-gp); assay: MDCK-MDR1 permeability assay, blood-brain-barrier penetration potential; conditions: dog, MDCK-MDR1, pH 7.4, MDCK-MDR1 Efflux Ratio
[2] = tested on: MDR1; assay: in vitro; conditions: dog; for Papp A→B at 120 min, 5 μM: MDCK-MDR1, pH 7.4, MDCK-MDR1: Papp A-B (10^−6, cm/s); for Papp B→A at 120 min, 5 μM: MDCK-MDR1, pH 7.4, MDCK-MDR1: Papp B-A (10^−6, cm/s)
[3] = tested on: SMN protein; assay: SMN protein assay (MSD) in SMA patient fibroblasts (GM03813); assay type: cell-based, human
Procedure, shortened: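 Absolute SMN protein measured by Mesoscale Discovery assay in lysates, calibrated per plate with SMN standards (1–19.5 μg/ml). Cells: GM03813 SMA fibroblasts, 7000/well, 48 h compound exposure at doses of 2.5 μM down to 0.6 nM.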

[4] = tested on: MDR1-MDCK cell monolayers; conditions: dog, MDCK-MDR1, 120 min, 5 μM, pH 7.4
[5] = tested on: SMN FL and SMN Δ7; assay: Quantitative splicing assay (SMN) in SMA patient fibroblasts (GM03813); assay type: cell-based; conditions: Homo sapiens, Fibroblast; class symbol; read-out: SMN2 Splicing FL EC50 (nM)*
Procedure: Spinal muscular atrophy (SMA) patient fibroblasts (GM03813, Coriell) are plated in 96-well plates at 50,000 cells/well. […] Treated cells are lysed and cDNA synthesized using the Fast Advanced Cells-to-Ct kit (Thermofisher A35378) according to the manufacturer's instructions. 2 μL of each cDNA are used in qPCR reactions. […] Reactions are run in a Quant Studio 6 qPCR instrument with default settings.

CN(c1cnc(-c2ccc(-c3cn[nH]c3)cc2O)cn1)[C@@H]1CC2COC[C@H](N2)[C@@H]1F (single isomer, unassigned) [Compound 72E1]
efflux ratio at 120 min, 5 μM [1]: 7
Papp A→B at 120 min, 5 μM [2]: 8.21 ×10⁻⁶ cm/s
Papp B→A at 120 min, 5 μM [2]: 60.9 ×10⁻⁶ cm/s
EC50 [3]: 501 to 10000 nM
MDCK-MDR1: % Recov A-B (%) [4]: 90%
MDCK-MDR1: % Recov B-A (%) [4]: 112%
EC50 [5]: 501 to 10000 nM

CN(c1cnc(-c2ccc(-c3cn[nH]c3)cc2O)cn1)[C@H]1C[C@@H]2COCC(N2)[C@H]1F (single isomer, unassigned) [Compound 72E2]
efflux ratio at 120 min, 5 μM [1]: 8
Papp A→B at 120 min, 5 μM [2]: 9.82 ×10⁻⁶ cm/s
Papp B→A at 120 min, 5 μM [2]: 82.5 ×10⁻⁶ cm/s
EC50 [3]: 101 to 500 nM
MDCK-MDR1: % Recov A-B (%) [4]: 96%
MDCK-MDR1: % Recov B-A (%) [4]: 113%
EC50 [5]: 501 to 10000 nM

COc1cc(-c2ccc(-c3cnc(N(C)[C@H]4C[C@@H]5COCC(N5)[C@H]4F)cn3)c(O)c2)cnn1 (single isomer, unassigned) [Compound 74E2]
efflux ratio at 120 min, 5 μM [1]: 18
Papp A→B at 120 min, 5 μM [2]: 3.6 ×10⁻⁶ cm/s
Papp B→A at 120 min, 5 μM [2]: 63.2 ×10⁻⁶ cm/s
EC50 [3]: 501 to 10000 nM
MDCK-MDR1: % Recov A-B (%) [4]: 92%
MDCK-MDR1: % Recov B-A (%) [4]: 104%
EC50 [5]: 501 to 10000 nM

CN(c1cnc(-c2ccc(C3=CC(=O)NC3)cc2O)cn1)[C@H]1C[C@@H]2CCC(N2)[C@H]1F (single isomer, unassigned) [Compound 78E2]
efflux ratio at 120 min, 5 μM [1]: 55
Papp A→B at 120 min, 5 μM [2]: 0.56 ×10⁻⁶ cm/s
Papp B→A at 120 min, 5 μM [2]: 30.7 ×10⁻⁶ cm/s
EC50 [3]: 16 to 50 nM
MDCK-MDR1: % Recov A-B (%) [4]: 94%
MDCK-MDR1: % Recov B-A (%) [4]: 82%
EC50 [5]: 501 to 10000 nM

COc1cc(-c2ccc(-c3cnc(N(C)[C@@H]4CC5COC[C@H](N5)[C@@H]4F)cn3)c(O)c2)ccn1 (single isomer, unassigned) [Compound 81E1]
efflux ratio at 120 min, 5 μM [1]: 1
Papp A→B at 120 min, 5 μM [2]: 2.69 ×10⁻⁶ cm/s
Papp B→A at 120 min, 5 μM [2]: 3.08 ×10⁻⁶ cm/s
EC50 [3]: 501 to 10000 nM
MDCK-MDR1: % Recov A-B (%) [4]: 28%
MDCK-MDR1: % Recov B-A (%) [4]: 47%
EC50 [5]: 501 to 10000 nM

COc1cc(-c2ccc(-c3cnc(N(C)[C@H]4C[C@@H]5COCC(N5)[C@H]4F)cn3)c(O)c2)ccn1 (single isomer, unassigned) [Compound 81E2]
efflux ratio at 120 min, 5 μM [1]: 2
Papp A→B at 120 min, 5 μM [2]: 2 ×10⁻⁶ cm/s
Papp B→A at 120 min, 5 μM [2]: 3.4 ×10⁻⁶ cm/s
EC50 [3]: 501 to 10000 nM
MDCK-MDR1: % Recov A-B (%) [4]: 42%
MDCK-MDR1: % Recov B-A (%) [4]: 77%
EC50 [5]: 101 to 500 nM

CN(c1cnc(-c2ccc(-c3ccn(C)c(=O)c3)cc2O)cn1)[C@@H]1CC2CCC[C@H](N2)[C@@H]1F (single isomer, unassigned) [Compound 83E1]
efflux ratio at 120 min, 5 μM [1]: 52
Papp A→B at 120 min, 5 μM [2]: 0.94 ×10⁻⁶ cm/s
Papp B→A at 120 min, 5 μM [2]: 48.4 ×10⁻⁶ cm/s
EC50 [3]: 101 to 500 nM
MDCK-MDR1: % Recov A-B (%) [4]: 78%
MDCK-MDR1: % Recov B-A (%) [4]: 81%
EC50 [5]: 101 to 500 nM

CN(c1cnc(-c2ccc(-c3ccn(C)c(=O)c3)cc2O)cn1)[C@H]1C[C@@H]2CCCC(N2)[C@H]1F (single isomer, unassigned) [Compound 83E2]
efflux ratio at 120 min, 5 μM [1]: 36
Papp A→B at 120 min, 5 μM [2]: 1.28 ×10⁻⁶ cm/s
Papp B→A at 120 min, 5 μM [2]: 45 ×10⁻⁶ cm/s
EC50 [3]: 16 to 50 nM
MDCK-MDR1: % Recov A-B (%) [4]: 106%
MDCK-MDR1: % Recov B-A (%) [4]: 118%
EC50 [5]: 101 to 500 nM

CN(c1cnc(-c2ccc(-c3ccn(C)c(=O)c3)cc2O)cn1)[C@@H]1C[C@H]2CCC[C@H](N2)[C@@H]1F [Compound 5E1, 4-(4-(5-(((1S,2S,3R,5R)-2-fluoro-9-azabicyclo[3.3.1]nonan-3-yl)(methyl)amino)pyrazin-2-yl)-3-hydroxyphenyl)-1-methylpyridin-2(1H)-one]
efflux ratio at 120 min, 5 μM [1]: 25
Papp A→B at 120 min, 5 μM [2]: 2.04 ×10⁻⁶ cm/s
Papp B→A at 120 min, 5 μM [2]: 50.3 ×10⁻⁶ cm/s
EC50 [3]: 0.01 to 15 nM
MDCK-MDR1: % Recov A-B (%) [4]: 84%
MDCK-MDR1: % Recov B-A (%) [4]: 90%
EC50 [5]: 51 to 100 nM

CN(c1cnc(-c2ccc(-c3cn[nH]c3)cc2O)cn1)[C@H]1C[C@]2(C)CCC[C@@](C)(N2)[C@H]1F [Compound 23E2, 2-(5-(((1R,2S,3S,5S)-2-fluoro-1,5-dimethyl-9-azabicyclo[3.3.1]nonan-3-yl)(methyl)amino)pyrazin-2-yl)-5-(1H-pyrazol-4-yl)phenol]
efflux ratio at 120 min, 5 μM [1]: 2
Papp A→B at 120 min, 5 μM [2]: 5.71 ×10⁻⁶ cm/s
Papp B→A at 120 min, 5 μM [2]: 13.6 ×10⁻⁶ cm/s
EC50 [3]: 0.01 to 15 nM
MDCK-MDR1: % Recov A-B (%) [4]: 39%
MDCK-MDR1: % Recov B-A (%) [4]: 65%
EC50 [5]: 16 to 50 nM

COc1cc(-c2ccc(-c3cnc(N(C)[C@@H]4C[C@@]5(C)CC[C@](C)(N5)[C@@H]4F)cn3)c(O)c2)cnn1 [Compound 25E1, 2-(5-(((1S,2R,3R,5R)-2-fluoro-1,5-dimethyl-8-azabicyclo[3.2.1]octan-3-yl)(methyl)amino)pyrazin-2-yl)-5-(6-methoxypyridazin-4-yl)phenol]
efflux ratio at 120 min, 5 μM [1]: 7
Papp A→B at 120 min, 5 μM [2]: 5.6 ×10⁻⁶ cm/s
Papp B→A at 120 min, 5 μM [2]: 39.6 ×10⁻⁶ cm/s
EC50 [3]: 501 to 10000 nM
MDCK-MDR1: % Recov A-B (%) [4]: 45%
MDCK-MDR1: % Recov B-A (%) [4]: 64%
EC50 [5]: 501 to 10000 nM

COc1cc(-c2ccc(-c3cnc(N(C)[C@H]4C[C@]5(C)CC[C@@](C)(N5)[C@H]4F)cn3)c(O)c2)cnn1 [Compound 25E2, 2-(5-(((1R,2S,3S,5S)-2-fluoro-1,5-dimethyl-8-azabicyclo[3.2.1]octan-3-yl)(methyl)amino)pyrazin-2-yl)-5-(6-methoxypyridazin4-yl)phenol]
efflux ratio at 120 min, 5 μM [1]: 5
Papp A→B at 120 min, 5 μM [2]: 5.01 ×10⁻⁶ cm/s
Papp B→A at 120 min, 5 μM [2]: 22.9 ×10⁻⁶ cm/s
EC50 [3]: 101 to 500 nM
MDCK-MDR1: % Recov A-B (%) [4]: 42%
MDCK-MDR1: % Recov B-A (%) [4]: 70%
EC50 [5]: 501 to 10000 nM

CN(c1cnc(-c2cc(F)c(-c3cn[nH]c3)cc2O)cn1)[C@@H]1C[C@@]2(C)CC[C@](C)(N2)[C@@H]1F [Compound 57E1, 4-fluoro-2-(5-(((1S,2R,3R,5R)-2-fluoro-1,5-dimethyl-8-azabicyclo[3.2.1]octan-3-yl)(methyl)amino)pyrazin-2-yl)-5-(1H-pyrazol-4-yl)phenol]
efflux ratio at 120 min, 5 μM [1]: 3
Papp A→B at 120 min, 5 μM [2]: 5.9 ×10⁻⁶ cm/s
Papp B→A at 120 min, 5 μM [2]: 18.8 ×10⁻⁶ cm/s
EC50 [3]: 16 to 50 nM
MDCK-MDR1: % Recov A-B (%) [4]: 37%
MDCK-MDR1: % Recov B-A (%) [4]: 59%
EC50 [5]: 101 to 500 nM

CN(c1cnc(-c2cc(F)c(-c3cn[nH]c3)cc2O)cn1)[C@H]1C[C@]2(C)CC[C@@](C)(N2)[C@H]1F [Compound 57E2, 4-fluoro-2-(5-(((1R,2S,3S,5S)-2-fluoro-1,5-dimethyl-8-azabicyclo[3.2.1]octan-3-yl)(methyl)amino)pyrazin-2-yl)-5-(1H-pyrazol-4-yl)phenol]
efflux ratio at 120 min, 5 μM [1]: 3
Papp A→B at 120 min, 5 μM [2]: 5.8 ×10⁻⁶ cm/s
Papp B→A at 120 min, 5 μM [2]: 20 ×10⁻⁶ cm/s
EC50 [3]: 0.01 to 15 nM
MDCK-MDR1: % Recov A-B (%) [4]: 35%
MDCK-MDR1: % Recov B-A (%) [4]: 64%
EC50 [5]: 501 to 10000 nM

CN(c1cnc(-c2cc(F)c(-c3cnn(C)c3)cc2O)cn1)[C@H]1C[C@]2(C)CC[C@@](C)(N2)[C@H]1F [Compound 58E2, 4-fluoro-2-(5-(((1R,2S,3S,5S)-2-fluoro-1,5-dimethyl-8-azabicyclo[3.2.1]octan-3-yl)(methyl)amino)pyrazin-2-yl)-5-(1-methyl-1H-pyrazol-4-yl)phenol]
efflux ratio at 120 min, 5 μM [1]: 3
Papp A→B at 120 min, 5 μM [2]: 5.98 ×10⁻⁶ cm/s
Papp B→A at 120 min, 5 μM [2]: 16.4 ×10⁻⁶ cm/s
EC50 [3]: 0.01 to 15 nM
MDCK-MDR1: % Recov A-B (%) [4]: 32%
MDCK-MDR1: % Recov B-A (%) [4]: 69%
EC50 [5]: 101 to 500 nM

CNC(=O)/C=C/c1cc(O)c(-c2cnc(N(C)[C@H]3C[C@]4(C)CC[C@@](C)(N4)[C@H]3F)cn2)cc1F [Compound 61E2, (E)-3-(2-fluoro-4-(5-(((1R,2S,3S,5S)-2-fluoro-1,5-dimethyl-8-azabicyclo[3.2.1]octan-3-yl)(methyl)amino)pyrazin-2-yl)-5-hydroxyphenyl)-N-methylacrylamide]
efflux ratio at 120 min, 5 μM [1]: 54
Papp A→B at 120 min, 5 μM [2]: 0.77 ×10⁻⁶ cm/s
Papp B→A at 120 min, 5 μM [2]: 41.9 ×10⁻⁶ cm/s
EC50 [3]: 0.01 to 15 nM
MDCK-MDR1: % Recov A-B (%) [4]: 86%
MDCK-MDR1: % Recov B-A (%) [4]: 89%
EC50 [5]: 501 to 10000 nM
